Measurements published in patent US20150141437A1, “AMIDOPHENOXYPROPANOLAMINES” (MEDIZINISCHE UNIVERSITÄT WIEN, priority 2012, published 2015).

Legend:
Format in all cases: cell-based
[1] = test system: P. falciparum 3D7 (CQ-sensitive); test: HRP2-based ELISA growth inhibition, 3D7 strain; settings: Plasmodium falciparum, unmarked values: HRP II ELISA, 72 h
Source text: (§1) Highly sensitive HRP2-based ELISA and [^3H]-hypoxanthine incorporation assay were used as markers for inhibition of parasite growth as previously described (12, 14). A solvent control and a chloroquine (CQ) control were included in the HRP2-based ELISA. CQ, lumefantrine and artesunate were included as controls in the [^3H]-hypoxanthine assay series.
(§2) The assay protocol of the HRP2-based ELISA is described in more detail in the following paragraphs.
(§3) The P. falciparum clones were maintained in continuous culture as described previously (10). Briefly, 3D7 (CQ-sensitive), NF54, and K1 (CQ-resistant) P. falciparum clones were obtained from MR4/American Type Culture Collection, Manassas, Va., USA under the accession numbers MR4-102 (3D7), MRA-1000 (NF54), and MR4-159 (K1). P. falciparum cultures were maintained in 25 cm^2 flasks. Parasites were cultured in RPMI 1640 (Sigma Aldrich, Austria) medium containing 10% human serum at a hematocrit of 5% (blood group 0 negative) at 37° C. under an atmosphere of 5% CO2, 5% O2 and 90% N2. The medium was changed every 24 to 48 hours. The culture was diluted and fresh erythrocytes were added whenever the parasite density reached >1%.
(§4) Stock solutions of compounds of formula I were prepared in DMSO (10 mg/mL). Stock concentrations of chloroquine and lumefantrine always remained 1 mg/mL and were prepared in 70% ethanol. Coating of culture plates with compounds of formula I and controls: 96 wells culture plates were coated as described previously (11). Working standards were prepared by diluting the stock solutions in RPMI1640 to obtain the desired final concentrations. Serial three-fold dilutions (seven concentrations and one drug-free control well) of the drugs (25 μL/well) were dispensed in duplicate into standard 96-well micro culture plates. Chloroquine was included as a reference drug in all experiments.
(§5) After reaching a parasitemia of 5% or higher, 5 mL of cell medium mixture were centrifuged at 700 g for 5 minutes at room temperature (RT). Packed red cells were resuspended in 3 mL of 5% D-sorbitol (Sigma Aldrich, Austria) in water at RT and immediately centrifuged again at 700 g for 5 minutes at RT followed by three washes with 3 mL of RPMI1640 medium. […].
(§6) Samples were diluted with RPMI1640 medium containing 0.5% Albumax II (GIBCO, Invitrogen, Vienna, Austria) by adding uninfected red blood cells to 1.5% hematocrit and 0.05% parasitemia. 150 μL of this cell medium mixture was then added to each well of 96-well plates precoated with test compounds and incubated at 37° C. for 72 hours in a gas mixture containing 5% CO2, 5% O2, and 90% N2. After 72 hours the plates were frozen at −20° C. until the histidine rich protein II assay (23).
(§7) A highly sensitive HRPII ELISA was used based on two commercially available monoclonal antibodies (Immunology Consultants Laboratory, Inc., Newberg, Oreg.) directed against P. falciparum-specific HRPII: MPFM-55A, an immunoglobulin M antibody served as the primary capture antibody and HRP-conjugated MPFG-55P (Immunology Consultants Laboratory, Inc., Newberg, Oreg.) as secondary antibody. The ELISA was employed to assess growth inhibition as a measure of drug susceptibility as previously described. Optical density was measured at 450 nm using a standard ELISA plate reader (12-13).
(§8) Hyperbolic concentration response curves were fitted to the data points by nonlinear least squares using the solver add-in of the Excel software.
(§9) Indicated in TABLE 2 are the IC50 [μM] values for growth inhibition of the 3D7 (NF54) and K1 strains of P. falciparum for the compounds of formula I indicated with their formula numbers in TABLE 2. Unmarked IC50 values for K1 and 3D7 strains of P. falciparum have been determined by HRP II enzyme linked immunosorbent assay (ELISA) as described above. […]

[2] = test system: P. falciparum K1 (CQ-resistant); test: HRP2-based ELISA growth inhibition, K1 strain; settings: Plasmodium falciparum, unmarked values: HRP II ELISA, 72 h
Source text: as §1, §2, §3, §4, §5, §6, §7, §8, §9

[3] = test system: P. falciparum K1 (CQ-resistant); test: [3H]-hypoxanthine incorporation assay, K1 strain; settings: Plasmodium falciparum, values marked with asterisk: [3H]-hypoxanthine assay, read-out: IC50 growth inhibition K1 (*)
[4] = test system: P. falciparum NF54 (CQ sensitive); test: [3H]-hypoxanthine incorporation assay, NF54 strain; settings: Plasmodium falciparum, values marked with asterisk: [3H]-hypoxanthine assay, read-out: IC50 growth inhibition NF54*

SMILES	IC50 [1] [nM]	IC50 [2] [nM]	IC50 [3] [nM]	IC50 [4] [nM]
O=C(c1ccccc1)c1ccc(CNCC(O)COc2ccccc2C(=O)NCc2ccccc2)cc1 (stereo not shown) [Compound I-49, 2-[3-(4-Benzoyl-benzylamino)-2-hydroxy-propoxy]-N-benzyl-benzamide]	9300	3230	–	–
O=C(NCc1ccccc1)c1ccccc1OCC(O)CNCCCc1ccccc1 (stereo not shown) [Compound I-50, N-Benzyl-2-[2-hydroxy-3-(3-phenyl-propylamino)-propoxy]-benzamide]	1750	403	–	–
CN(CC(O)COc1ccccc1C(=O)NCc1ccc(C(F)(F)F)cc1)C1C2CC3CC(C2)CC1C3 (stereo not shown) [Compound I-16, 2-[3-(Adamantan-2-yl-methyl-amino)-2-hydroxy-propoxy]-N-(4-trifluoromethyl-benzyl)-benzamide]	131	54	–	–
CCCCCN(CC(O)COc1ccccc1C(=O)NCc1ccccc1)C1C2CC3CC(C2)CC1C3 (stereo not shown) [Compound I-19, 2-[3-(Adamantan-2-yl-pentyl-amino)-2-hydroxy-propoxy]-N-benzyl-benzamide]	153	40	–	–
C#CCOc1cc(CN(CCC)CC(O)COc2ccccc2C(=O)NCc2ccccc2)ccc1OC (stereo not shown) [Compound I-63, N-Benzyl-2-{2-hydroxy-3-[(4-methoxy-3-prop-2-ynyloxy-benzyl)-propyl-amino]-propoxy}-benzamide]	9490	982	–	–
Cc1ccc(NC(=O)c2ccccc2OCC(O)CNC(C)C23CC4CC(CC(C4)C2)C3)cc1 (stereo not shown) [Compound I-41, 2-[3-(1-Adamantan-1-yl-ethylamino)-2-hydroxy-propoxy]-N-p-tolyl-benzamide]	70	12	–	–
O=C(Nc1cccc(C(F)(F)F)c1)c1cc(Cl)ccc1OCC(O)CN1CCC(c2ccccc2)CC1 (stereo not shown) [Compound I-83, 5-Chloro-2-[2-hydroxy-3-(4-phenyl-piperidin-1-yl)-propoxy]-N-(3-trifluoromethyl-phenyl)-benzamide]	–	–	3.5	16
O=C(Nc1cccc(C(F)(F)F)c1)c1cc(Cl)ccc1OCC(O)CNCC12CC3CC(CC(C3)C1)C2 (stereo not shown) [Compound I-72, 2-{3-[(Adamantan-1-ylmethyl)-amino]-2-hydroxy-propoxy}-5-chloro-N-(3-trifluoromethyl-phenyl)-benzamide]	–	–	1	4.2
O=C(Nc1cccc(C(F)(F)F)c1)c1ccccc1OCC(O)CN1CCC(c2ccccc2)CC1 (stereo not shown) [Compound I-67, 2-[2-Hydroxy-3-(4-phenyl-piperidin-1-yl)-propoxy]-N-(3-trifluoromethyl-phenyl)-benzamide]	–	–	2.2	8.8
CCCCNCC(O)COc1ccccc1C(=O)NCCC(C)C (stereo not shown) [Compound I-56, 2-(3-Butylamino-2-hydroxy-propoxy)-N-(3-methyl-butyl)-benzamide]	–	–	827	2750
C#CCOc1ccc(OCC(O)CNCc2ccc(C3(C(F)(F)F)N=N3)cc2)c(C(=O)Nc2ccc(F)cc2)c1 (stereo not shown) [Compound I-45, N-(4-Fluoro-phenyl)-2-{2-hydroxy-3-[4-(3-trifluoromethyl-3H-diazirin-3-yl)-benzylamino]-propoxy}-5-prop-2-ynyloxy-benzamide]	–	–	542	1860
CC(C)CCNCC(O)COc1ccccc1C(=O)NCCC(C)C (stereo not shown) [Compound I-58, 2-[2-Hydroxy-3-(3-methyl-butylamino)-propoxy]-N-(3-methyl-butyl)-benzamide]	–	–	467	1690
O=C(Nc1ccc2ccccc2c1)c1ccccc1OCC(O)CNCC12CC3CC(CC(C3)C1)C2 (stereo not shown) [Compound I-71, 2-{3-[(Adamantan-1-ylmethyl)-amino]-2-hydroxy-propoxy}-N-naphthalen-2-yl-benzamide]	–	–	1.8	6.2
CC(C)CCNC(=O)c1ccccc1OCC(O)CNCC12CC3CC(CC(C3)C1)C2 (stereo not shown) [Compound I-24, 2-{3-[(Adamantan-1-ylmethyl)-amino]-2-hydroxy-propoxy}-N-(3-methyl-butyl)-benzamide]	–	–	36	134
CCCCN(CCCC)CC(O)COc1ccccc1C(=O)NCCC(C)C (stereo not shown) [Compound I-57, 2-(3-Dibutylamino-2-hydroxy-propoxy)-N-(3-methyl-butyl)-benzamide]	–	–	76	333
Cc1ccc(NC(=O)c2ccccc2OCC(O)CN2CCC(c3ccccc3)CC2)cc1 (stereo not shown) [Compound I-80, 2-[2-Hydroxy-3-(4-phenyl-piperidin-1-yl)-propoxy]-N-p-tolyl-benzamide]	–	–	11	47
O=C(NCCc1ccccc1)c1ccccc1OCC(O)CNCC12CC3CC(CC(C3)C1)C2 (stereo not shown) [Compound I-31, 2-{3-[(Adamantan-1-ylmethyl)-amino]-2-hydroxy-propoxy}-N-phenethyl-benzamide]	–	–	30	101
CCCCN(CCCC)CC(O)COc1ccccc1C(=O)Nc1ccc(F)cc1 (stereo not shown) [Compound I-61, 2-(3-Dibutylamino-2-hydroxy-propoxy)-N-(4-fluoro-phenyl)-benzamide]	–	–	6	18
O=C(Nc1ccc(Br)cc1)c1ccccc1OCC(O)CNC12CC3CC(CC(C3)C1)C2 (stereo not shown) [Compound I-75, 2-[3-(Adamantan-1-ylamino)-2-hydroxy-propoxy]-N-(4-bromo-phenyl)-benzamide]	–	–	7.1	28
O=C(Nc1cccc(C(F)(F)F)c1)c1cc(Cl)ccc1OCC(O)CN1CCN(C(c2ccccc2)c2ccccc2)CC1 (stereo not shown) [Compound I-85, 2-[3-(4-Benzhydryl-piperazin-1-yl)-2-hydroxy-propoxy]-5-chloro-N-(3-trifluoromethyl-phenyl)-benzamide]	–	–	1.2	5.7
O=C(Nc1ccc(F)cc1)c1ccccc1OCC(O)CN1CCN(C(c2ccccc2)c2ccccc2)CC1 (stereo not shown) [Compound I-48, 2-[3-(4-Benzhydryl-piperazin-1-yl)-2-hydroxy-propoxy]-N-(4-fluoro-phenyl)-benzamide]	–	–	4	14
CC(C)CCNC(=O)c1ccccc1OCC(O)CNC(C)C12CC3CC(CC(C3)C1)C2 (stereo not shown) [Compound I-25, 2-[3-(1-Adamantan-1-yl-ethylamino)-2-hydroxy-propoxy]-N-(3-methyl-butyl)-benzamide]	–	–	18	74
O=C(Nc1ccc(F)cc1)c1ccccc1OCC(O)CN1CCC(Cc2ccccc2)CC1 (stereo not shown) [Compound I-47, 2-[3-(4-Benzyl-piperidin-1-yl)-2-hydroxy-propoxy]-N-(4-fluoro-phenyl)-benzamide]	–	–	7	16
O=C(NCc1cccc2ccccc12)c1cc(Cl)ccc1OCC(O)CNCC12CC3CC(CC(C3)C1)C2 (stereo not shown) [Compound I-34, 2-{3-[(Adamantan-1-ylmethyl)-amino]-2-hydroxy-propoxy}-5-chloro-N-naphthalen-1-ylmethyl-benzamide]	–	–	5	20
O=C(Nc1ccccc1F)c1ccccc1OCC(O)CN1CCC(Cc2ccccc2)CC1 (stereo not shown) [Compound I-78, 2-[3-(4-Benzyl-piperidin-1-yl)-2-hydroxy-propoxy]-N-(2-fluoro-phenyl)-benzamide]	–	–	74	205
CN(CC(O)COc1ccccc1C(=O)NCc1ccccc1)CC12CC3CC(CC(C3)C1)C2 (stereo not shown) [Compound I-36, 2-[3-(Adamantan-1-ylmethyl-methyl-amino)-2-hydroxy-propoxy]-N-benzyl-benzamide]	–	–	182	670
